The term inhibition denotes the relative decrease from the control value, in per cent. Higher therefore signals strong suppression. As usually defined, the IC50 is the concentration that inhibits the measured activity by half. High values mean lower potency, low ones higher potency.

The structures appear in SMILES notation.

The values that follow come from patent US9023882B2, “5-membered nitrogen containing heterocyclic derivatives and pharmaceutical compositions comprising the same” (Kissei Pharmaceutical Co., Ltd., priority 2007, dated 2015).

The target of assay [1] is human URAT1 (Homo sapiens (Human), UniProt Q96S37). The experiment in a line: Inhibitory activity of uric acid transport with human URAT1 expressing cells. It is filed as cell-based. Conditions: COS-7; test compound 100 μM; 14C-labeled uric acid uptake in COS7 cells transiently expressing human URAT1. As to the method: (1) Preparation of Transiently Human URAT1 Expressing Cells
Full length human URAT1 cDNA (NCBI Accession No. NM_144585) was subcloned into expression vector, pcDNA3.1 (Invitrogen). Human URAT1 expression vector was transfected into COS7 cells (RIKEN CELL BANK RCB0539) using Lipofectamine 2000 (Invitrogen). COS7 cells were cultured in collagen-coated 24 well plates (Asahi Techno Glass) at 2×10^5/well in D-MEM culture medium (Invitrogen) containing 10% fetal bovine serum (Sanko Junyaku) for 2 hours at 37° C. under the condition of 5% CO2. For 1 well, 2 μL of Lipofectamine 2000 was diluted in 50 μL of OPTI-MEM (Invitrogen) and allowed to stand at room temperature for 7 minutes (hereinafter referred to as Lipo2000-OPTI). For 1 well, 0.8 μg of human URAT1 expression vector was diluted in 50 μL of OPTI-MEM (Invitrogen) and combined gently with Lipo2000-OPTI. After standing at room temperature for 25 minutes, the mixture was added to COS7 cells at 100 μL/well. Furthermore, COS7 cells were cultured for 2 days at 37° C. under the condition of 5% CO2 and used for measuring inhibitory activity on the uptake.
(2) Preparation of Test Compounds
Test compounds were dissolved in DMSO (Wako) at 10 mM concentration and then diluted to 2 times higher concentration than intended with pre-treatment buffer (125 mM sodium gluconate, 4.8 mM potassium gluconate, 1.2 mM potassium dihydrogen phosphate, 1.2 mM magnesium sulfate, 1.3 mM calcium gluconate, 5.6 mM glucose, 25 mM Hepes, pH 7.4). Pre-treatment buffer without test compounds was used for control. […]
All tests were performed on hot-plate at 37° C. […] After mixing, the radioactivity was counted in a liquid scintillation counter (PerkinElmer). The radioactivity in COST cells not transfected with URAT1 expression vector was also counted under the same condition as control. […] Percent inhibition (%)=[1−(B−C)/(A−C)]×100 A: Radioactivity in control B: Radioactivity in the case of addition of test compounds C: Radioactivity in COST cells not transfected with URAT1 expression vector

The subject of assay [2] is BBMV from human kidney cortex. Description: Inhibitory activity of uric acid transport with brush-border membrane vesicles (BBMV). Conditions: test compound 100 μM; uptake of 14C-labeled uric acid into human kidney cortex BBMV. In kind it is biochemical. As to the method:
Inhibitory activity of uric acid transport of test compounds was performed on the basis of methods described in a reference (Am. J. Physiol. 266 (Renal Fluid Electrolyte Physiol. 35): F797-F805, 1994) with a partial modification.
(1) Preparation of BBMV from Human Kidney Cortex
BBMV from human kidney cortex were purchased from KAC. Renal cortex was dissected from human kidney and cut into small pieces. Then, the cortex was homogenized in 5 volumes of ice-cold isotonic buffer (300 mM mannitol, 5 mM ethylene glycol-bis-(β-aminoethylether)-N,N,N′,N′-tetraacetic acid (EGTA), 12 mM tris(hydroxymethyl)aminomethane (Tris).HCl, pH 7.4). After adding 1 M magnesium chloride to a final concentration of 12 mM, and then the suspension was mixed and allowed to stand on ice for 15 minutes. The homogenized solution was centrifuged at 2,500×g for 15 minutes at 4° C., furthermore, the supernatant was centrifuged at 30,000×g for 30 minutes at 4° C. The pellet was resuspended in ice-cold buffer 1 (150 mM mannitol, 2.5 mM EGTA, 6 mM Tris.HCl, pH 7.4). After adding 1 M magnesium chloride to a final concentration of 12 mM, and then the suspension was mixed and allowed to stand on ice for 15 minutes. After centrifugation again at 2,500×g for 15 minutes at 4° C., furthermore, the supernatant was centrifuged at 30,000×g for 30 minutes at 4° C. The pellet was resuspended in ice-cold buffer 2 (100 mM mannitol, 100 mM potassium gluconate, 20 mM 2-[4-(2-hydroxyethyl)-1-piperazinyl]-ethanesulfonic acid (Hepes)-Tris, pH 7.4). After centrifugation at 30,000×g for 30 minutes at 4° C., the pellet was resuspended in buffer 2, and then the protein concentration was determined
(2) Preparation of Test Compounds […]
BBMV were thawed on ice. […] The uptake of uric acid into BBMV was measured by the rapid-filtration technique. […] Furthermore, filters were washed twice with 3 mL of stop solution and dissolved in 10 mL of Filter-Count (PerkinElmer), and the radioactivity was counted in a liquid scintillation counter (PerkinElmer). The radioactivity associated with the filters in the absence of BBMV was used as corrections. […]

Assay [3] deals with Xanthine oxidase (from bovine milk, Sigma) (Bos taurus (Bovine), UniProt P80457). Description: Xanthine oxidase inhibitory activity. In kind it is biochemical. Conditions: absorbance at 290 nm. An outline of the steps: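 Bovine milk enzyme at 0.02 units/mL in PBS was mixed with compound (DMSO stock diluted in PBS) and 200 μM xanthine stock, reacting 10 min at room temperature. Uric acid formation was read as absorbance at 290 nm; IC50 was derived with no-xanthine wells as 0% and no-compound control as 100%.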

The subject of assay [4] is serum uric acid. The experiment in a line: Serum hypouricemic effect. In kind it is in vivo. Conditions: 1 mg/kg oral, male CD (SD) IGS rats, 2 hours after administration. As to the method: (1) Method for Measurement
Test compounds at 1 mg/kg suspended in 0.5% methylcellulose solution were administered orally to overnight fasted male CD (SD) IGS rats (5-week-old, Charls River Japan). At 2 hours after administration, blood was collected under ether anesthesia from abdominal aorta, and serum was separated according to general method. Serum uric acid values were determined by use of uric acid measurement kit (Uric acid C-Test Wako: Wako), and percent decrease in uric acid was calculated according to the formula described below. Percent decrease in uric acid (%)=(Serum uric acid values in control animals−Serum uric acid values in animals administered test compounds)×100/Serum uric acid values in control animals (2) Results

Xanthine oxidase (from bovine milk, Sigma), sequence (P80457 whole entry): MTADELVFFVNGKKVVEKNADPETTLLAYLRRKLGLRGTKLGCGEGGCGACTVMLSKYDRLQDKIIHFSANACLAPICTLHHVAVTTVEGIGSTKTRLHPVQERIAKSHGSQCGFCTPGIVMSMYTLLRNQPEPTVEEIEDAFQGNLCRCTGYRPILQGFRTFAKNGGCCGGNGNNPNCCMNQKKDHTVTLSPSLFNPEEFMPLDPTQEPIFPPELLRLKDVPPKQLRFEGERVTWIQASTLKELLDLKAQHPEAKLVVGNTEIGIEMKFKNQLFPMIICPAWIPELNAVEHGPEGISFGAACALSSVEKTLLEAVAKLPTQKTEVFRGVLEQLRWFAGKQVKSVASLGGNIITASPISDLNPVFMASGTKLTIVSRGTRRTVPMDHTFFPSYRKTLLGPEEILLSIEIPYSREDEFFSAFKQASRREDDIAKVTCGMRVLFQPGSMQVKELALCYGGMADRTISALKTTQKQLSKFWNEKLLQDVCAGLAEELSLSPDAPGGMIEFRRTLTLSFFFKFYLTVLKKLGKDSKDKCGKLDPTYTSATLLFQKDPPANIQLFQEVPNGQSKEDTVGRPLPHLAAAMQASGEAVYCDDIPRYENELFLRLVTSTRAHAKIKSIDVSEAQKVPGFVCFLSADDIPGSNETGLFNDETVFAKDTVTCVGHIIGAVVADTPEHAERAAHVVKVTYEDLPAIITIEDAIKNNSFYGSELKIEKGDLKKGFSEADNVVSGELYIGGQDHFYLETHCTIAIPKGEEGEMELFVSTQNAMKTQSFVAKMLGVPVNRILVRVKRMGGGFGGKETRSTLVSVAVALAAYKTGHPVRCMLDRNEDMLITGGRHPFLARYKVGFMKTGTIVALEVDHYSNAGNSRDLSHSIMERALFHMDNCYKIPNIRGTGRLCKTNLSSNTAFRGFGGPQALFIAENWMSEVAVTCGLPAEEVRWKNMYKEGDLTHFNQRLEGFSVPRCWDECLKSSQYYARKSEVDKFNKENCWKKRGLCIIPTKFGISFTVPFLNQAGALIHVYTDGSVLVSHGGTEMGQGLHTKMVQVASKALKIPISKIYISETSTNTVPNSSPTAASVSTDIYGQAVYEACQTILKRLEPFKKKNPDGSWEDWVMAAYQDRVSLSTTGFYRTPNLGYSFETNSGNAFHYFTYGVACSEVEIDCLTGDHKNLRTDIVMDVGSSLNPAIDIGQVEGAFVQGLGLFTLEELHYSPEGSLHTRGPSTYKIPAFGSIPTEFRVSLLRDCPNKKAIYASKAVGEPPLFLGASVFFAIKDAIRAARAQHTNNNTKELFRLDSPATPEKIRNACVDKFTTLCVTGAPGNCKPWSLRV
human URAT1, sequence (Q96S37 whole entry): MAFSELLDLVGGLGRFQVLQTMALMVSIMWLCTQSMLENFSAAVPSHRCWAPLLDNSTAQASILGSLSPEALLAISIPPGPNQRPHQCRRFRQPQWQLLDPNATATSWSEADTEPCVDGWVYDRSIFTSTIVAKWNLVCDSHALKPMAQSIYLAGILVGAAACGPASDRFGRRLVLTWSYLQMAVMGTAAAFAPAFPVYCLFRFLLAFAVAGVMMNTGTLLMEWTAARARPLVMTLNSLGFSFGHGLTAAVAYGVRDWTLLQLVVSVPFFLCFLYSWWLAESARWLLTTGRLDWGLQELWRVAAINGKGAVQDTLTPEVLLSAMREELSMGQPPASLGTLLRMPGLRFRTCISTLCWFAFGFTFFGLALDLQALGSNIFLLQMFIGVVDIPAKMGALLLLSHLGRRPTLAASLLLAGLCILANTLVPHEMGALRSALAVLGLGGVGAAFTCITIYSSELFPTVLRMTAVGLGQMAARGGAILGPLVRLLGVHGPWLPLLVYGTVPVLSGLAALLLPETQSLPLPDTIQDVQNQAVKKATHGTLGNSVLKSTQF

`N#Cc1cn(-c2cc(C(=O)O)ccn2)cc1-c1ccccc1` [Example 20, 2-(3-Cyano-4-phenylpyrrole-1-yl)isonicotinic acid]: the inhibition at 100 µM in assay [1] turned out to be 77%. In assay [2], this compound came in with an inhibition % of over 90%. This compound showed a half-maximal inhibitory concentration (IC50) in assay [3] (0.02 units/mL, xanthine 200 μM, 10 minutes at room temperature) of 52.1 nM.

As for `N#Cc1cn(-c2ccc(C(=O)O)c(O)c2)cc1-c1ccsc1` [Example 314], the “Percent decrease in uric acid (hypouricemic effect)” value in assay [4] is given as “over 50%”. This compound displayed an IC50 in assay [3] (100 μM xanthine final) of 5.2 nM.

Regarding `CCCCc1cn(-c2ccc(C(=O)O)c(O)c2)cc1C#N` [Example 355], in assay [1], the inhibition at 100 µM came to 89%. In assay [2], this compound displayed an inhibition % of over 90%. This compound yielded an IC50 in assay [3] (100 μM xanthine final) of 3.3 nM.

In the case of `N#Cc1cn(-c2ccc(C(=O)O)c(O)c2)cc1-c1cccs1` [Example 306], at 100 µM the inhibition in assay [1] was 91%. In assay [2], this compound gave an inhibition % of over 90%. Moreover, in assay [3] (100 μM xanthine final), the half-inhibitory concentration (IC50) was 7.8 nM.

Regarding `N#Cc1cn(-c2ccc(C(=O)O)c(O)c2)cc1-c1ccccc1` [Example 301], the “Percent decrease in uric acid (hypouricemic effect)” value in assay [4] is recorded as “over 50%”. Also, in assay [3] (100 μM xanthine final), the midpoint of inhibition, the IC50, lay at 6.2 nM.
